The supplement of paper PMC10627819

How the values were obtained:
B. subtilis 168 = assay: Bliss interaction score (quartile over a dose matrix) (fitness difference); higher = more antagonism (negative = synergy)
Method in brief: (§1)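 Fitness was OD595 at entry into stationary phase divided by the plate's robust no-drug mean and capped at 1; single-drug fitness was inferred from combination data. The Bliss score is observed minus expected (product) fitness, summarised by quartiles over technical, biological and donor/recipient replicates.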

S. aureus Newman = assay: as above
Method in brief: as §1

S. pneumoniae D39V [1] = assay: as above
Method in brief: as §1

S. aureus DSM 20231 = assay: as above
Method in brief: as §1

S. pneumoniae D39V [2] = assay: fitness (endpoint OD595 vs no drug) (fraction); higher = more growth
Method in brief: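 Plates with 384 wells were inoculated at OD595 0.01 using 30 µl of TSB, LB Lennox or CY, or 55 µl for S. pneumoniae. Incubation was at 37 °C, with OD595 measured every 30 min for 14 h. Fitness is the stationary-phase transition optical density over the robust mean of no-drug control wells, after first-reading background subtraction; it is capped at 1.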
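For Bliss interaction score (quartile over a dose matrix) in this document: first quartile when negative (synergy) and third quartile when positive (antagonism).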

CC[C@H]1OC(=O)[C@H](C)[C@@H](O[C@H]2C[C@@](C)(OC)[C@@H](O)[C@H](C)O2)[C@H](C)[C@@H](O[C@@H]2O[C@H](C)C[C@H](N(C)C)[C@H]2O)[C@](C)(OC)C[C@@H](C)C(=O)[C@H](C)[C@@H](O)[C@]1(C)O [Clarithromycin] + Cc1cc(NS(=O)(=O)c2ccc(N)cc2)no1 [Sulfamethoxazol]
Settings	Bliss interaction score
B. subtilis 168	0.0784
S. aureus DSM 20231	0.0612
S. aureus Newman	-0.0372
S. pneumoniae D39V [1]	0.0413

fitness, S. pneumoniae D39V [2], one replicate
Settings	first compound 0.007812 µg/mL	first compound 0.01562 µg/mL	first compound 0.03125 µg/mL	first compound 0.0625 µg/mL	first compound 0.125 µg/mL	first compound 0.25 µg/mL
partner 1 µg/mL	0.925	0.809	0.67	0.699	0.466	0.168
partner 2 µg/mL	0.917	0.825	0.665	0.813	0.664	0.315
partner 4 µg/mL	0.899	0.805	0.661	0.613	0.465	0.17

fitness, S. pneumoniae D39V [2]
Settings	first compound 0.07 µg/mL	first compound 0.14 µg/mL	first compound 0.28 µg/mL
partner 1 µg/mL	0.119	0.0685	0.0468
partner 2 µg/mL	0.11	0.0677	0.0381
partner 4 µg/mL	0.1	0.0655	0.0459

CC[C@H]1OC(=O)[C@H](C)[C@@H](O[C@H]2C[C@@](C)(OC)[C@@H](O)[C@H](C)O2)[C@H](C)[C@@H](O[C@@H]2O[C@H](C)C[C@H](N(C)C)[C@H]2O)[C@](C)(OC)C[C@@H](C)C(=O)[C@H](C)[C@@H](O)[C@]1(C)O [Clarithromycin] + O=C(O[C@@H]1Cc2c(O)cc(O)cc2O[C@@H]1c1cc(O)c(O)c(O)c1)c1cc(O)c(O)c(O)c1 [EGCG]
Settings	Bliss interaction score
B. subtilis 168	0.0404
S. aureus DSM 20231	0.109
S. aureus Newman	0.132
S. pneumoniae D39V [1]	-0.0473

fitness, S. pneumoniae D39V [2], one replicate
Settings	first compound 0.007812 µg/mL	first compound 0.01562 µg/mL	first compound 0.03125 µg/mL
partner 12.5 µg/mL	0.808	0.8	0.635
partner 25 µg/mL	0.847	0.762	0.609
partner 50 µg/mL	0.827	0.77	0.614

fitness, S. pneumoniae D39V [2]
Settings	first compound 0.0625 µg/mL	first compound 0.07 µg/mL	first compound 0.125 µg/mL	first compound 0.14 µg/mL	first compound 0.25 µg/mL	first compound 0.28 µg/mL
partner 12.5 µg/mL	0.457	0.123	0.241	0.0422	0.0839	0.0515
partner 25 µg/mL	0.493	0.115	0.25	0.0716	0.0874	0.0518
partner 50 µg/mL	0.383	0.144	0.373	0.0769	0.122	0.0507

C[C@@H](O)[C@H]1C(=O)N2C(C(=O)O)=C(SCCNC=N)C[C@H]12 [Imipenem] + CO[C@H]1/C=C/O[C@@]2(C)Oc3c(C)c(O)c4c(O)c(c(/C=N/N5CCN(C)CC5)c(O)c4c3C2=O)NC(=O)/C(C)=C\C=C\[C@H](C)[C@H](O)[C@@H](C)[C@@H](O)[C@@H](C)[C@H](OC(C)=O)[C@@H]1C [Rifampicin]
Settings	Bliss interaction score
B. subtilis 168	0.0636
S. aureus DSM 20231	0.0391
S. aureus Newman	0.0149
S. pneumoniae D39V [1]	-0.106

fitness, S. pneumoniae D39V [2], one replicate
Settings	first compound 0.005 µg/mL	first compound 0.01 µg/mL	first compound 0.02 µg/mL
partner 0.025 µg/mL	0.856	0.81	0.816
partner 0.2 µg/mL	0	0	0

fitness, S. pneumoniae D39V [2]
Settings	first compound 0.0065 µg/mL	first compound 0.013 µg/mL	first compound 0.02 µg/mL	first compound 0.026 µg/mL
partner 0.05 µg/mL	0.678	0.721	0.726	0.695
partner 0.1 µg/mL	0.402	–	–	0.361
partner 0.2 µg/mL	0.254	–	–	–

C[C@@H](O)[C@H]1C(=O)N2C(C(=O)O)=C(SCCNC=N)C[C@H]12 [Imipenem] + CC1=C\[C@@H](O)CC(=O)Cc2nc(co2)C(=O)N2CCC=C2C(=O)O[C@H](C(C)C)[C@H](C)/C=C/C(=O)NC\C=C\1 [Virginiamycin M1]
Settings	Bliss interaction score
B. subtilis 168	0.0502
S. aureus DSM 20231	0.0515
S. aureus Newman	-0.0199
S. pneumoniae D39V [1]	0.0822

fitness, S. pneumoniae D39V [2], one replicate
Settings	partner 0.15 µg/mL	partner 0.3 µg/mL	partner 0.5 µg/mL	partner 1 µg/mL
first compound 0.005 µg/mL	0.993	0.88	0.978	0.979
first compound 0.01 µg/mL	≥ 1	0.995	0.97	≥ 1
first compound 0.02 µg/mL	0.988	0.901	0.978	≥ 1

fitness, S. pneumoniae D39V [2]
Settings	first compound 0.005 µg/mL	first compound 0.0065 µg/mL	first compound 0.01 µg/mL	first compound 0.013 µg/mL	first compound 0.02 µg/mL	first compound 0.026 µg/mL
partner 0.5 µg/mL	–	0.992	–	0.999	–	0.964
partner 1 µg/mL	–	0.983	–	≥ 1	–	0.978
partner 2 µg/mL	0.893	0.983	0.88	–	0.888	0.891

O=C1CN(/N=C/c2ccc([N+](=O)[O-])o2)C(=O)N1 [Nitrofurantoin] + CN[C@@H]1[C@H](O[C@H]2[C@H](O[C@H]3[C@H](O)[C@@H](O)[C@H](N=C(N)N)[C@@H](O)[C@@H]3N=C(N)N)O[C@@H](C)[C@]2(O)C=O)O[C@@H](CO)[C@H](O)[C@H]1O [Streptomycin]
Settings	Bliss interaction score
B. subtilis 168	-0.0807
S. aureus DSM 20231	-0.0532
S. aureus Newman	-0.0496
S. pneumoniae D39V [1]	0.0583

fitness, S. pneumoniae D39V [2]
Settings	first compound 1.285 µg/mL	first compound 2 µg/mL	first compound 2.57 µg/mL	first compound 4 µg/mL	first compound 8 µg/mL
partner 2 µg/mL	0.956	–	0.938	–	–
partner 4 µg/mL	0.953	0.956	0.921	0.936	0.768
partner 8 µg/mL	0.927	0.884	0.918	0.887	0.743

fitness, S. pneumoniae D39V [2], one replicate
Settings	first compound 2 µg/mL	first compound 4 µg/mL	first compound 5.14 µg/mL	first compound 8 µg/mL
partner 2 µg/mL	0.965	0.948	0.86	0.76
partner 4 µg/mL	–	–	0.8	–
partner 8 µg/mL	–	–	0.809	–
partner 16 µg/mL	0.743	0.753	–	0.585

CCC[C@@H]1C[C@@H](C(=O)N[C@@H]([C@H]2O[C@H](SC)[C@H](O)[C@@H](O)[C@H]2O)[C@@H](C)O)N(C)C1 [Lincomycin] + Clc1ccc(COC(Cn2ccnc2)c2ccc(Cl)cc2Cl)c(Cl)c1 [Miconazole]
Settings	Bliss interaction score
B. subtilis 168	0.0378
S. aureus DSM 20231	0.0484
S. aureus Newman	0.0538
S. pneumoniae D39V [1]	0.117

S. pneumoniae D39V [2]
Settings	fitness
first compound 0.2 µg/mL, partner 1.073 µg/mL	0.824
first compound 0.2 µg/mL, partner 2.145 µg/mL	0.874
first compound 0.2 µg/mL, partner 4.29 µg/mL	0.807
first compound 0.215 µg/mL, partner 1.25 µg/mL	0.808
first compound 0.215 µg/mL, partner 2.5 µg/mL	0.782
first compound 0.215 µg/mL, partner 5 µg/mL	0.81
first compound 0.4 µg/mL, partner 1.073 µg/mL	0.716
first compound 0.4 µg/mL, partner 2.145 µg/mL	0.683
first compound 0.4 µg/mL, partner 4.29 µg/mL	0.544
first compound 0.43 µg/mL, partner 1.25 µg/mL	0.71
first compound 0.43 µg/mL, partner 2.5 µg/mL	0.682
first compound 0.43 µg/mL, partner 5 µg/mL	0.689
first compound 0.8 µg/mL, partner 4.29 µg/mL	0.275
first compound 0.86 µg/mL, partner 1.25 µg/mL	0.264
first compound 0.86 µg/mL, partner 2.5 µg/mL	0.308
first compound 0.86 µg/mL, partner 5 µg/mL	0.377

O=C1CN(/N=C/c2ccc([N+](=O)[O-])o2)C(=O)N1 [Nitrofurantoin] + CCN(CC)CCOC(=O)c1ccc(N)cc1 [Procaine]
Settings	Bliss interaction score
B. subtilis 168	0.106
S. aureus DSM 20231	0.0706
S. aureus Newman	0.0593
S. pneumoniae D39V [1]	0.0619

fitness, S. pneumoniae D39V [2]
Settings	partner 85.5 µg/mL	partner 171 µg/mL	partner 342 µg/mL
first compound 1.285 µg/mL	0.994	0.987	0.994
first compound 2.57 µg/mL	0.972	0.964	0.934

fitness, S. pneumoniae D39V [2], one replicate
Settings	first compound 2 µg/mL	first compound 4 µg/mL	first compound 5.14 µg/mL	first compound 8 µg/mL
partner 85.5 µg/mL	0.964	0.951	0.921	0.858
partner 171 µg/mL	≥ 1	0.979	0.943	0.908
partner 342 µg/mL	0.914	0.879	0.918	0.837

O=C1CN(/N=C/c2ccc([N+](=O)[O-])o2)C(=O)N1 [Nitrofurantoin] + Cc1cc(NS(=O)(=O)c2ccc(N)cc2)no1 [Sulfamethoxazol]
Settings	Bliss interaction score
B. subtilis 168	0.0955
S. aureus DSM 20231	-0.0311
S. aureus Newman	0.0591
S. pneumoniae D39V [1]	0.049

fitness, S. pneumoniae D39V [2]
Settings	partner 1 µg/mL	partner 2 µg/mL	partner 4 µg/mL
first compound 1.285 µg/mL	0.952	0.957	0.91
first compound 2.57 µg/mL	0.942	0.948	0.944

fitness, S. pneumoniae D39V [2], one replicate
Settings	first compound 2 µg/mL	first compound 4 µg/mL	first compound 5.14 µg/mL	first compound 8 µg/mL
partner 1 µg/mL	0.937	0.944	0.92	0.805
partner 2 µg/mL	0.929	0.934	0.929	0.833
partner 4 µg/mL	0.842	0.859	0.927	0.768
